From PubChem BioAssay (NCI)
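Grown in 96-well plates, cells were treated for 48 hours with each compound at five concentrations. Insufficient inhibition: endpoint recorded as highest concentration tested. Here, GI50 denotes the concentration required for 50% inhibition of growth. TGI: concentration producing complete growth inhibition.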

What was measured:
Experiment in all cases: NCI-60 cell line screen, 48 h
HOP-62 NSCLC = tested on: HOP-62 NSCLC
TK-10 renal = tested on: TK-10 renal
OVCAR-8 ovarian = tested on: OVCAR-8 ovarian
LOX IMVI melanoma = tested on: LOX IMVI melanoma
T-47D breast = tested on: T-47D breast
NCI-H226 lung = tested on: NCI-H226 lung
U251 CNS = tested on: U251 CNS
HOP-92 NSCLC = tested on: HOP-92 NSCLC
HT29 colon = tested on: HT29 colon
SW-620 colon = tested on: SW-620 colon
K-562 leukemia = tested on: K-562 leukemia
IGROV1 ovarian = tested on: IGROV1 ovarian
UACC-257 melanoma = tested on: UACC-257 melanoma
ACHN renal = tested on: ACHN renal
MDA-MB-435 = tested on: MDA-MB-435
SF-539 CNS = tested on: SF-539 CNS
NCI-H23 lung = tested on: NCI-H23 lung
786-0 renal = tested on: 786-0 renal
SF-268 CNS = tested on: SF-268 CNS
PC-3 prostate = tested on: PC-3 prostate
HCT-116 colon = tested on: HCT-116 colon
SNB-75 CNS = tested on: SNB-75 CNS
HCC-2998 colon = tested on: HCC-2998 colon
HL-60(TB) leukemia = tested on: HL-60(TB) leukemia
MDA-MB-231 breast = tested on: MDA-MB-231 breast
UACC-62 melanoma = tested on: UACC-62 melanoma
SK-OV-3 ovarian = tested on: SK-OV-3 ovarian
HS 578T breast = tested on: HS 578T breast
RPMI-8226 leukemia = tested on: RPMI-8226 leukemia
SR leukemia = tested on: SR leukemia
SK-MEL-2 melanoma = tested on: SK-MEL-2 melanoma
DU-145 prostate = tested on: DU-145 prostate
A549 NSCLC = tested on: A549 NSCLC
KM12 colon = tested on: KM12 colon
COLO 205 colon = tested on: COLO 205 colon
SK-MEL-28 melanoma = tested on: SK-MEL-28 melanoma
UO-31 renal = tested on: UO-31 renal
NCI/ADR-RES ovarian = tested on: NCI/ADR-RES ovarian
MOLT-4 leukemia = tested on: MOLT-4 leukemia
SNB-19 CNS = tested on: SNB-19 CNS
OVCAR-4 ovarian = tested on: OVCAR-4 ovarian
CAKI-1 renal = tested on: CAKI-1 renal
M14 melanoma = tested on: M14 melanoma
SK-MEL-5 melanoma = tested on: SK-MEL-5 melanoma
SN12C renal = tested on: SN12C renal
MCF7 breast = tested on: MCF7 breast
NCI-H460 lung = tested on: NCI-H460 lung
OVCAR-5 ovarian = tested on: OVCAR-5 ovarian
BT-549 breast = tested on: BT-549 breast
OVCAR-3 ovarian = tested on: OVCAR-3 ovarian
EKVX NSCLC = tested on: EKVX NSCLC
HCT-15 colon = tested on: HCT-15 colon
NCI-H522 lung = tested on: NCI-H522 lung
SF-295 CNS = tested on: SF-295 CNS

Compound: COc1cc2c(c(OC)c1OC)C(=O)[C@@H]1c3ccc([N+](=O)[O-])cc3C(=O)N(CCCBr)[C@H]21
- GI50 (HOP-62 NSCLC): 13.9 µM
- TGI (HOP-62 NSCLC): 41.4 µM
- GI50 (TK-10 renal): 8.04 µM
- TGI (TK-10 renal): 34.9 µM
- GI50 (OVCAR-8 ovarian): 10.2 µM
- TGI (OVCAR-8 ovarian): 37.6 µM
- GI50 (LOX IMVI melanoma): 19.5 µM
- TGI (LOX IMVI melanoma): > 100 µM
- GI50 (T-47D breast): 7.88 µM
- TGI (T-47D breast): > 100 µM
- GI50 (NCI-H226 lung): 13.6 µM
- TGI (NCI-H226 lung): 49.7 µM
- GI50 (U251 CNS): 23.3 µM
- TGI (U251 CNS): > 100 µM
- GI50 (HOP-92 NSCLC): 16.1 µM
- TGI (HOP-92 NSCLC): 78.6 µM
- GI50 (HT29 colon): 14.2 µM
- TGI (HT29 colon): > 100 µM
- GI50 (SW-620 colon): 20 µM
- TGI (SW-620 colon): > 100 µM
- GI50 (K-562 leukemia): 30.6 µM
- TGI (K-562 leukemia): > 100 µM
- GI50 (IGROV1 ovarian): 3.41 µM
- TGI (IGROV1 ovarian): 21.3 µM
- GI50 (UACC-257 melanoma): 5.21 µM
- TGI (UACC-257 melanoma): 30.8 µM
- GI50 (ACHN renal): 15.2 µM
- TGI (ACHN renal): 58.5 µM
- GI50 (MDA-MB-435): 2.79 µM
- TGI (MDA-MB-435): 14.7 µM
- GI50 (SF-539 CNS): 11.8 µM
- TGI (SF-539 CNS): 38.7 µM
- GI50 (NCI-H23 lung): 15.4 µM
- TGI (NCI-H23 lung): 35.8 µM
- GI50 (786-0 renal): 12.5 µM
- TGI (786-0 renal): 33.1 µM
- GI50 (SF-268 CNS): 8.6 µM
- TGI (SF-268 CNS): 41.6 µM
- GI50 (PC-3 prostate): 13.1 µM
- TGI (PC-3 prostate): 55.6 µM
- GI50 (HCT-116 colon): 4.59 µM
- TGI (HCT-116 colon): 51 µM
- GI50 (SNB-75 CNS): 9.46 µM
- TGI (SNB-75 CNS): 45.1 µM
- GI50 (HCC-2998 colon): 1.17 µM
- TGI (HCC-2998 colon): 7.51 µM
- GI50 (HL-60(TB) leukemia): 64.2 µM
- TGI (HL-60(TB) leukemia): > 100 µM
- GI50 (MDA-MB-231 breast): 2.99 µM
- TGI (MDA-MB-231 breast): 25.3 µM
- GI50 (UACC-62 melanoma): > 100 µM
- TGI (UACC-62 melanoma): > 100 µM
- GI50 (SK-OV-3 ovarian): 22.3 µM
- TGI (SK-OV-3 ovarian): 74.5 µM
- GI50 (HS 578T breast): 5.71 µM
- TGI (HS 578T breast): 35.5 µM
- GI50 (RPMI-8226 leukemia): 14.8 µM
- TGI (RPMI-8226 leukemia): 91.1 µM
- GI50 (SR leukemia): 3.92 µM
- TGI (SR leukemia): > 100 µM
- GI50 (SK-MEL-2 melanoma): 19.7 µM
- TGI (SK-MEL-2 melanoma): 59.8 µM
- GI50 (DU-145 prostate): 14.6 µM
- TGI (DU-145 prostate): 53.2 µM
- GI50 (A549 NSCLC): 12.3 µM
- TGI (A549 NSCLC): 45.5 µM
- GI50 (KM12 colon): 25.7 µM
- TGI (KM12 colon): > 100 µM
- GI50 (COLO 205 colon): 9.86 µM
- TGI (COLO 205 colon): > 100 µM
- GI50 (SK-MEL-28 melanoma): 33.1 µM
- TGI (SK-MEL-28 melanoma): > 100 µM
- GI50 (UO-31 renal): 4.49 µM
- TGI (UO-31 renal): 25.7 µM
- GI50 (NCI/ADR-RES ovarian): 11 µM
- TGI (NCI/ADR-RES ovarian): 44.9 µM
- GI50 (MOLT-4 leukemia): 19.8 µM
- TGI (MOLT-4 leukemia): > 100 µM
- GI50 (SNB-19 CNS): 22 µM
- TGI (SNB-19 CNS): > 100 µM
- GI50 (OVCAR-4 ovarian): 17.1 µM
- TGI (OVCAR-4 ovarian): 64.2 µM
- GI50 (CAKI-1 renal): 2 µM
- TGI (CAKI-1 renal): 14.2 µM
- GI50 (M14 melanoma): 12.1 µM
- TGI (M14 melanoma): 33.5 µM
- GI50 (SK-MEL-5 melanoma): 11 µM
- TGI (SK-MEL-5 melanoma): 27.5 µM
- GI50 (SN12C renal): 7.67 µM
- TGI (SN12C renal): 29.9 µM
- GI50 (MCF7 breast): 4.71 µM
- TGI (MCF7 breast): > 100 µM
- GI50 (NCI-H460 lung): 8.15 µM
- TGI (NCI-H460 lung): 62.2 µM
- GI50 (OVCAR-5 ovarian): 31 µM
- TGI (OVCAR-5 ovarian): 91.9 µM
- GI50 (BT-549 breast): 14.6 µM
- TGI (BT-549 breast): 55.9 µM
- GI50 (OVCAR-3 ovarian): 2.02 µM
- TGI (OVCAR-3 ovarian): 12.4 µM
- GI50 (EKVX NSCLC): 12.7 µM
- TGI (EKVX NSCLC): 61.6 µM
- GI50 (HCT-15 colon): 20.3 µM
- TGI (HCT-15 colon): > 100 µM
- GI50 (NCI-H522 lung): 4.18 µM
- TGI (NCI-H522 lung): 25.2 µM
- GI50 (SF-295 CNS): 2.04 µM
- TGI (SF-295 CNS): 19.7 µM
